Experimental data reported in publication PMC3948684, “Approaches to Improve the Oral Bioavailability and Effects of Novel Anticancer Drugs Berberine and Betulinic Acid” (PLoS ONE, 2014).
Converted amounts (≈) assume the structure as drawn.

Experiments:
p38 = test: Real time PCR of tumors; type: in vivo, athymic Nu/nu mice; conditions: normalised to β-actin
Method: (§1) Total RNA was extracted from tumors using RNeasy Kit and quantified by UV method using Nanodrop system. RNA was converted to complementary DNA using RT^2 First Strand Kit and RT^2 SYBR Green ROX qPCR Mastermix as per manufacturer's instructions. p38, Phospho-JNK, Bax, Bcl-2, cleaved caspase 8, cleaved caspase 3, survivin and BAD, mRNA expressions amplification was performed on an ABI 7300 RT-PCR (Applied Biosystems, Carlsbad, CA, USA) and data analysis done with a PCR Array Data Analysis Software (SA Biosciences, Valencia, CA, USA). The mRNA levels of p38, Phospho-JNK, Bax, Bcl-2, cleaved caspase 8, cleaved caspase 3, survivin and BAD and β-actin were calculated. The β-actin was a normalization control for gene expression.

cleaved caspase-8 = test: Real time PCR of tumors; type: in vivo, athymic Nu/nu mice; conditions: normalised to β-actin
Method: as §1

Phospho-JNK = test: Real time PCR of tumors; type: in vivo, athymic Nu/nu mice; conditions: normalised to β-actin
Method: as §1

Bcl-2 = test: Real time PCR of tumors; type: in vivo, athymic Nu/nu mice; conditions: normalised to β-actin
Method: as §1

Bax = test: Real time PCR of tumors; type: in vivo, athymic Nu/nu mice; conditions: normalised to β-actin
Method: as §1

cleaved caspase-3 = test: Real time PCR of tumors; type: in vivo, athymic Nu/nu mice; conditions: normalised to β-actin
Method: as §1

A549 cells = test: In vitro cytotoxicity, crystal violet staining; type: cell-based; conditions: Homo sapiens, BA, 72 h treatment
Method: (§2) NSCLC cells A549 and H1650 were plated in 96 well plates at 10,000 cells/well density. After 24 h, cells were treated with various concentrations of BBR and BA. DMSO (0.1%) treated cells were considered as control cells. After 72 h treatment, cells were fixed in 0.25% gultaraldehyde and stained with 0.05% crystal violet staining. Percent of cell viability or cell kill was calculated by considering DMSO treated control cells as 100% viable (zero % cell kill).

H1650 cells = test: In vitro cytotoxicity, crystal violet staining; type: cell-based; conditions: Homo sapiens, NCI-H1650; BA, 72 h treatment
Method: as §2

[1] = Oral pharmacokinetic study; type: in vivo, Sprague Dawley rats
Method: Rats were fasted overnight before the start of the experiments and randomly divided into two experimental groups. […] Pharmacokinetic parameters were analyzed using non-compartmental techniques with WinNonlin® 5.0 software (Pharsight Corporation, Mountain View, CA, USA). SHAM analysis (i.e., Slope, Height, Area, and Moment) utilized plasma concentration-time data to estimate the area under the curve (AUC), apparent terminal elimination rate constant (λz), terminal elimination half-life (t1/2) and the area under the first moment of the plasma concentration–time curve (AUMC). The AUC was calculated for each rat using the piecewise log trapezoidal areas and extrapolated to infinity by dividing λz into the last measured plasma concentration (i.e. Clast/λz). From the values of AUC0_0-∞ and AUMC0-∞, the clearance (CL), mean residence time (MRT) and volume of distribution at tissue equilibrium (Vss) were calculated based on noncompartmental monoexponential assumptions as: CL = Dose/AUC, MRT≅AUMC/AUC and Vss = CL×MRT. The noncompartmental parameters were calculated for each rat before averaging dose groups. The pharmacokinetic parameters such as AUC, Cmax, t1/2, tmax, MRT, etc were compared between the free drug and SD formulations.

[2] = tested on: A549 orthotopic lung tumors; test: A549 orthotopic lung cancer model; type: in vivo, athymic Nu/nu mice; conditions: 100 mg/kg orally daily for 3 weeks
Method: (§3) A549 cells were grown in F12K Medium containing 10% FBS and standard antibiotic mix at 5% CO2 and 37°C. For orthotopic lung tumor model, mice were anesthetized with Isoflurane and a 5 mm skin incision was made to the left chest, 5 mm below the scapula. Hamilton syringes (1 ml) with 28-gauge hypodermic needles were used to inject the cell inoculums through the sixth intercostal space into the left lung. The needle was quickly advanced to a depth of 3 mm and quickly removed after the injection of the A549 cells (2 million/mouse) suspended in 100 µL PBS (pH 7.4) into the lung parenchyma. For metastatic lung tumor models H1650 cells (2 million in 100 µL PBS) were intravenously administered to mice via tail vein. […] Only cell suspensions of >95% viability as determined by tryphan blue exclusion were used. Wounds from the incisions were closed with surgical skin clips. […] Drug treatment was started 2 weeks after the tumor cell implantation. BBR free drug or SD formulation was given orally at the dose of 100 mg/kg daily for 3 weeks. […] Body weights were monitored throughout the study. Animal survival rates were recorded during the study. The lung weights and tumor volumes were used for assessment of therapeutic activity of the treatments. After sacrificing the animals lung weights and tumor nodules were recorded in metastatic tumor models.

[3] = In vitro drug release of BA (USP type II paddle, HPLC); type: physicochemical; conditions: after 24 h; pH 5.8, 2.5% SLS, 37°C
Method: In vitro drug release study was conducted in PBS (pH 5.8) containing 1% volpo. Briefly, 50 mg of free drug or equivalent amount of SD form of BBR and BA were dispersed in 500 ml of release medium and the drug release profile was studied at pH 5.8. Release studies were performed according to the USP type II paddle method, at 37±0.5°C while stirring constantly at 50 rpm. Samples were withdrawn at different time points, centrifuged and drug content in the samples was analyzed by spectrometric method of analysis. The withdrawn samples were replaced by equal volumes of fresh medium maintained at the same temperature. Except replacing the 1% Volpo with 2.5% SLS, similar conditions were maintained for the in vitro drug release studies of BA in free drug and SD forms. The released BA concentrations were measured by established HPLC method.

[4] = tested on: H1650 metastatic lung tumors; test: H1650 metastatic lung cancer model; type: in vivo, athymic Nu/nu mice; conditions: 100 mg/kg orally daily for 3 weeks
Method: as §3

[5] = tested on: TUNEL positive apoptotic cells; test: TUNEL assay on orthotopic lung tumor sections; type: in vivo, athymic Nu/nu mice
Method: Terminal deoxynucleotidyl transferase-mediated dUTP nick end labeling (TUNEL) assay was used to study the DNA fragmentation or apoptosis detection. TUNEL assay was performed on 4–5 µm thick sections as per the kit manual. Formalin-fixed tumor tissues were embedded in paraffin and sectioned ([…]). DeadEndTM Colorimetric Apoptosis Detection System (Promega, Madison, WI) allows the recognition of apoptotic nuclei in paraffin-embedded tissue sections fixed on slides according to the manufacturer's protocol. Briefly, the equilibration buffer was added to slides and incubated for 10 minutes followed by 10-minute incubation in […] proteinase K solution. The sections were washed in PBS and incubated with TdT enzyme at 37°C for 1 h in a humidified chamber for incorporation of biotinylated nucleotides at the 3-OH ends of DNA. The slides were incubated in horseradish peroxidase-labeled streptavidin to bind the biotinylated nucleotides followed by detection with stable chromagen DAB. The images on the slides were visualized with an Olympus BX40 light microscope equipped with a computer-controlled digital camera (DP71, Olympus Center Valley, PA, USA). Three slides per group were stained and apoptotic cells were identified by dark brown […] staining.

[6] = Sprague Dawley, rat, plasma, po, 100 mg/kg orally

Method for Caco-2 cell monolayers: Caco-2 cells (passage #29) were cultured at 37°C with culture medium replaced every 2 days in an atmosphere of 5% CO2 and 95% relative humidity. Cells were harvested upon reaching approximately 80-90% confluence with 0.25% trypsin–EDTA. Cells were grown on 1.12 cm^2 0.4 μm pore polycarbonate membrane inserts in 12 mm × 12 transwell permeable support plates (Corning, NY, USA). Caco-2 cells were seeded onto membranes at 50,000 cells/well. Individual wells received 1.5 mL of culture medium at the bottom and 0.5 mL of medium was added to the top of inserts which was changed on alternate days. Confluent monolayers were used for permeability studies at ~21 days post seeding. Transepithelial electrical resistance (TEER) of Caco-2 monolayers was measured prior to all experiments using the EVOM volt-ohm-meter (Millicell-ERS; Millipore, USA) to ensure monolayer integrity. The TEER (Ω·cm^2) values of the cell monolayers were determined by the resistance (Ω) × effective membrane area (cm^2). TEER values were measured across each cell monolayer prior to beginning the experimentation and at the last sample collection time point. Transport studies were initiated by removing culture medium from the apical (A) and basolateral (B) sides of the cell monolayer. […] The effective permeability (Peff) (cm/s) was determined using Eq. 1: […]

Compound: C=C(C)[C@@H]1CC[C@]2(C(=O)O)CC[C@]3(C)[C@H](CC[C@@H]4[C@@]5(C)CC[C@H](O)C(C)(C)[C@@H]5CC[C@]43C)[C@@H]12 [BA free drug, 3β, hydroxy-lup-20(29)-en-28-oic acid]
- p38 mRNA expression increased compared to control (p38): 1.20 fold
- cleaved caspase-8 mRNA expression higher than control (cleaved caspase-8): 1.25 fold
- Phospho-JNK mRNA expression increased compared to control (Phospho-JNK): 1.69 fold
- Bcl-2 mRNA expression down regulated compared to untreated control (Bcl-2): 1.36 fold
- Bax mRNA expression increased compared to control (Bax): 1.08 fold
- cleaved caspase-3 mRNA expression higher than control (cleaved caspase-3): 1.30 fold
- IC50 (A549 cells): 8.92 ± 1.68 µg/mL (≈ 19.5 µM)
- IC50 (H1650 cells): 7.25 ± 1.54 µg/mL (≈ 15.9 µM)
- CL ([1]; 100 mg/kg orally): 0.113 ± 0.0175 mL/min/kg
- AUMC (0-∞) ([1]; BA, 100 mg/kg orally): 116.04±23.13 µg.h^2/ml
- Vd ([1]; BA, 100 mg/kg orally): 0.12243 ± 0.01586 L/kg
- half-life ([1]; Sprague Dawley, rat, plasma, po, 100 mg/kg, read-out: t½ (converted)): 12.3 ± 3.68 h
- MRT [1, 6]: 15.1 ± 3.86 h
- Tmax [1, 6]: 2.36 ± 0.38 h
- AUC(0-inf) ([1]; Sprague Dawley, rat, plasma, po, BA, 100 mg/kg orally): 7260 ± 1650 ng·h/mL
- Cmax ([1]; Sprague Dawley, rat, po, BA, 100 mg/kg orally, plasma): 1160 ± 220 ng/mL
- lung tumor weights [2]: 404.31 ± 29.50 mg
- reduction in tumor volumes compared to untreated control [2]: 27.72%
- reduction in tumor weights compared to untreated control tumors [2]: Approximately 31.11%
- drug release [3]: 11.3%
- decrease of tumor nodules in the peripheral lobes [4]: 1.31 fold
- tumor weights reduced to, compared to untreated control [4]: 75.94%
- increase in TUNEL positive apoptotic cells compared to control tumors [5]: 8.14 fold

Compound: Lucifer Yellow
- mean permeability of paracellular control (Caco-2 cell monolayers): < 0.15 ×10⁻⁶ cm/s
